Common to all, as to type: in vivo
Test [1] is described as follows: Taste evaluation of the compound in water (cooling effect).
The nature of test [2]: Chewing gum containing the compound: cooling/taste profile over time. The conditions noted are these: for Profile: gum; for overall effect of test gum versus control gum: orange-flavored gum. How it is done: The above formulation was prepared in a Sigma mixer. The resultant chewing gum blend was manufactured into strips of 1 inch in width and 0.1 inches in thickness. The strips were subsequently cut into a length of 3 inches each. […] A test gum was further prepared by adding 1-(2-isopropyl-5-methyl-cyclohexyl)-4-(pyrrolidine-1-carbonyl)-pyrrolidin-2-one (Structure VI, 800 ppm) or 1-(2-isopropyl-5-methyl-cyclohexyl)-4-(piperidine-1-carbonyl)-pyrrolidin-2-one (Structure VII, 1200 ppm).

Test [3] in a line: Hard candy containing the compound: cooling/taste profile over time. The conditions noted are these: 300 ppm; for overall effect of test candy versus control candy: cherry flavored hard candy; for Profile: hard candy. How it is done:
First, the following formulation was prepared: […]
The above formulation was added to a stainless steel pot. With constant mixing, the formulation temperature was raised to 138° C. The pot was then removed from the heat, allowing cool to 120° C. and 0.7 g of flavor containing the ingredients in equal amounts: benzaldehyde, tolyl aldehyde, ethyl acetate, maltol, Davana oil, methyl heptinyl carbonate and 3 g of citric acid was added. The resulting cherry flavored liquid candy was then deposited into molds, and the molds containing the liquid candy were cooled to room temperature, yielding 600 g of finished hard candy. […] A test candy was further prepared using the above recipe modified by adding 0.18 g of 1-(2-isopropyl-5-methyl-cyclohexyl)-4-(pyrrolidine-1-carbonyl)-pyrrolidin-2-one (Structure VI, 300 ppm) or 1-(2-isopropyl-5-methyl-cyclohexyl)-4-(piperidine-1-carbonyl)-pyrrolidin-2-one (Structure VII, 300 ppm).

We go through 13 compounds from US8575349B2, “Derivatives of 1-alkyl-6-oxo-piperidine-3-carboxylic acids and 1-alkyl-5-oxo-pyrrolidine-3-carboxylic acids and their uses as cooling compounds” (International Flavors & Fragrances Inc., priority 2010, dated 2013).

For the compound `CC1CCC(C(C)C)C(N2CC(C(=O)N3CCCC3)CC2=O)C1` (stereo not shown) [Structure VI, 1-(2-isopropyl-5-methyl-cyclohexyl)-4-(pyrrolidine-1-carbonyl)-pyrrolidin-2-one], the “taste description / cooling effect” value is “mild cooling effect with slight bitterness, the cooling effect built up over the time” in test [1] (10 ppm in water); “cooling effect with bitterness, a menthol-like burning taste, and a nice built-up cooling taste” in test [1] (50 ppm in water). The Profile result was “At 1-3 minutes: cooling delocalized on the tongue;” in test [2] (800 ppm, at 1-3 minutes); “At 3-5 minutes: mild cooling located on the tongue;” in test [2] (800 ppm, at 3-5 minutes); “At 5-10 minutes: moderate cooling on the tongue and the roof” in test [2] (800 ppm, at 5-10 minutes); “At 20-30 minutes: clean sensation with a little bitterness” in test [2] (800 ppm, at 20-30 minutes); “At 0-1 minute: cooling with slight bitterness;” in test [3] (at 0-1 minute); “At 1-3 minutes: cooling built up;” in test [3] (at 1-3 minutes). For the same compound, the Profile entry in test [3] (at 3-5 minutes) is “At 3-5 minutes: cooling on the roof of mouth;”; in test [3] (at 5-10 minutes), “At 5-10 minutes: cooling with some bitterness;”; in test [3] (at 10-20 minutes), “At 10-20 minutes: cooling with mild bitterness;”; in test [3] (at 20-30 minutes) it was “At 20-30 minutes: cooling remained”. In addition, the “overall effect of test gum versus control gum” value in test [2] (800 ppm) is on record as “pleasant cooling effect”. Further, the “overall effect of test candy versus control candy” value in test [3] is “substantial cooling effect”.
For the compound `CC1CCC(C(C)C)C(N2CC(C(=O)N3CCCC3)CCC2=O)C1` (stereo not shown) [Structure XII, 1-(2-isopropyl-5-methyl-cyclohexyl)-5-(pyrrolidine-1-carbonyl)-piperidin-2-one], in test [1] (40 ppm in water), the “taste description / cooling effect” value was “slight cooling, and bitter and drying effect”.
Same read-out and setting: to `CC1CCC(C(C)C)C(N2CC(C(=O)N3CCCCC3)CCC2=O)C1` (stereo not shown) [Structure XIII, 1-(2-isopropyl-5-methyl-cyclohexyl)-5-(piperidine-1-carbonyl)-piperidin-2-one] belongs “grapefruit-like bitterness, and very mild cooling and drying effect”; to `CC1CCC(C(C)C)C(N2CC(C(=O)N3CCCCCC3)CC2=O)C1` (stereo not shown) [Structure VIII, 4-(azepane-1-carbonyl)-1-(2-isopropyl-5-methyl-cyclohexyl)-pyrrolidin-2-one], “bitterness and cooling effect and both built up”.
Take `CCN(C)C(=O)C1CC(=O)N(C2CC(C)CCC2C(C)C)C1` (stereo not shown) [Structure IV, 1-(2-isopropyl-5-methyl-cyclohexyl)-5-oxo-pyrrolidine-3-carboxylic acid ethyl-methyl-amide]: in test [1] (10 ppm in water), the “taste description / cooling effect” value is “mild cooling effect”.
For `CC1CCC(C(C)C)C(N2CC(C(=O)N3CCC3)CC2=O)C1` (stereo not shown) [Structure V, 4-(azetidine-1-carbonyl)-1-(2-isopropyl-5-methyl-cyclohexyl)-pyrrolidin-2-one], the “taste description / cooling effect” value in test [1] (40 ppm in water) is “mild cooling, earthy, off-flavor, not bitter, napthalene, herbaceous, slight tingle effect on the tip of tongue, and garden hose, carrot, astringent, and waxy effect”.
As for `COC(=O)C1CC(=O)N(C2CC(C)CCC2C(C)C)C1` (stereo not shown) [Structure I, 1-(2-isopropyl-5-methyl-cyclohexyl)-5-oxo-pyrrolidine-3-carboxylic acid methyl ester], the “taste description / cooling effect” value in test [1] (10 ppm in water) was “mild cooling effect”.
With `CC(C)(C)C1CCCCC1N1CC(C(=O)N2CCCC2)CC1=O` (stereo not shown) [Structure X, 1-(2-tert-butyl-cyclohexyl)-4-(pyrrolidine-1-carbonyl)-pyrrolidin-2-one], in test [1] (40 ppm in water), the “taste description / cooling effect” value is “upfront bitterness, quinine, drying, greasy, and burning effect”.
Still for that read-out and setting: to `COC(=O)C1CC(=O)N(C2CCCCC2C)C1` (stereo not shown) [Structure IX, 1-(2-methyl-cyclohexyl)-5-oxo-pyrrolidine-3-carboxylic acid methyl ester] belongs “slight upfront bitterness for ˜20-30 seconds and mild cooling effect that slightly built up in a few minutes”.
On to `CC(C)(C)C1CCCCC1N1CC(C(=O)N2CCCCC2)CC1=O` (stereo not shown) [Structure XI, 1-(2-tert-butyl-cyclohexyl)-4-(piperidine-1-carbonyl)-pyrrolidin-2-one], for which the “taste description / cooling effect” value in test [1] (40 ppm in water) was “some bitterness and drying, powdery, and minimal cooling effect”.
`CC1CCC(C(C)C)C(N2CC(C(=O)O)CC2=O)C1` (stereo not shown) [Structure II, 1-(2-isopropyl-5-methyl-cyclohexyl)-5-oxo-pyrrolidine-3-carboxylic acid]: the “taste description / cooling effect” value in test [1] (10 ppm in water) is recorded as “some cooling effect developed in the back of throat”.
Take `CC1CCC(C(C)C)C(N2CC(C(=O)N3CCCCC3)CC2=O)C1` (stereo not shown) [Structure VII, 1-(2-isopropyl-5-methyl-cyclohexyl)-4-(piperidine-1-carbonyl)-pyrrolidin-2-one]: the “taste description / cooling effect” value in test [1] (40 ppm in water) was “slight upfront bitterness, herbaceous flavor, and built-up cooling effect”. The Profile result is “At 0-1 minute: cooling onset, throat and slight tongue irritation,” in test [2] (1200 ppm, at 0-1 minute); “At 1-3 minutes: cooling and irritation delocalized with some” in test [2] (1200 ppm, at 1-3 minutes); “At 3-5 minutes: full mouth cooling, throughout mouth but not” in test [2] (1200 ppm, at 3-5 minutes); “At 5-10 minutes: strong cooling in mouth, concentrated in the” in test [2] (1200 ppm, at 5-10 minutes); “At 10-20 minutes: cooling peaked, consistent without any” in test [2] (1200 ppm, at 10-20 minutes); “At 20-30 minutes: strong cooling in mouth and throat,” in test [2] (1200 ppm, at 20-30 minutes). For the same compound, the Profile entry is “At 0-1 minute: bitterness;” in test [3] (at 0-1 minute); “At 1-3 minutes: cooling breath, strong cooling;” in test [3] (at 1-3 minutes); “At 3-5 minutes: intense cooling;” in test [3] (at 3-5 minutes); “At 5-10 minutes: intense cooling throughout mouth;” in test [3] (at 5-10 minutes); “At 10-20 minutes: very strong cooling, almost burning;” in test [3] (at 10-20 minutes); “At 20-30 minutes: strong and lasting cooling” in test [3] (at 20-30 minutes). For the same compound, the “overall effect of test gum versus control gum” value in test [2] (1200 ppm) is “pleasant cooling effect”. Further, in test [3], the “overall effect of test candy versus control candy” value is on record as “substantial cooling effect”.
Take `CC(C)CNC(=O)C1CC(=O)N(C2CC(C)CCC2C(C)C)C1` (stereo not shown) [Structure III, 1-(2-isopropyl-5-methyl-cyclohexyl)-5-oxo-pyrrolidine-3-carboxylic acid isobutyl-amide]: the “taste description / cooling effect” value in test [1] (10 ppm in water) is recorded as “mild cooling effect”.
